# Experiments:
# [1] = target: T1, RAR β (Homo sapiens, UniProt P10826); assay: RAR β Kd; assay type: binding; details: last item of cell EC50/(EFFICACY)/Kd
# T1 sequence (P10826 1-455): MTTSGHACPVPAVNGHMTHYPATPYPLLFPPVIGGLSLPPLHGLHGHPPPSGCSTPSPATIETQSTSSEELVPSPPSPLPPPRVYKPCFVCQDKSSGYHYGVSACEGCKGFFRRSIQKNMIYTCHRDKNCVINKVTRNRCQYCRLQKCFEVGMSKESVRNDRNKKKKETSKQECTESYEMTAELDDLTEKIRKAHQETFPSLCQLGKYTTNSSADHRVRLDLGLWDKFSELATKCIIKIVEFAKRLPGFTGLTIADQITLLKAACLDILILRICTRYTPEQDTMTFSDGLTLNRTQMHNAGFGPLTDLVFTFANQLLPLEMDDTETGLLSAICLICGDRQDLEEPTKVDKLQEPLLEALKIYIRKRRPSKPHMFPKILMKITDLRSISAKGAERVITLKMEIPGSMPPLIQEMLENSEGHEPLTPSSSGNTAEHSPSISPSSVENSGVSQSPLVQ
# [2] = target: T2, CYP26B (P450RAI-2) (Homo sapiens, UniProt Q9NR63); assay: Cell-based inhibition of RA metabolism in CYP26B stably transfected HeLa cells; details: stably transfected HeLa cells, [3H]-RA, 3 hours at 37° C.; read-out: P450RAI-2 Whole cell IC50
# T2 construct: expressed in transfected cells; host or cells: HeLa
# T2 sequence (Q9NR63 1-512): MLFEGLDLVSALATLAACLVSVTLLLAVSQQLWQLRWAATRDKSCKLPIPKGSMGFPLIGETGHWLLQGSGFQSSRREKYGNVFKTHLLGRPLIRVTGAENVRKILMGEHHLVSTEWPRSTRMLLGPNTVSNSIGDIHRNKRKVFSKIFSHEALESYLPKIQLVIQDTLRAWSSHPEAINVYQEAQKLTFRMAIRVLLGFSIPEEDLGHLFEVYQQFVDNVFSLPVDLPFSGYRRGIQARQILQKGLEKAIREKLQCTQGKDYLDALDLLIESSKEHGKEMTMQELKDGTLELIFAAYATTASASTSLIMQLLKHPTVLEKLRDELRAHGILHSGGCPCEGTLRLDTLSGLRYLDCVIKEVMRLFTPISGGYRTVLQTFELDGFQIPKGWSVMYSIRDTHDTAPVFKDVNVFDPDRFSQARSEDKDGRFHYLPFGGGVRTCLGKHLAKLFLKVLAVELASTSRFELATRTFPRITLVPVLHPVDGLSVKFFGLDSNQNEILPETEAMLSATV
# Method: (§1) In brief, CYP26A or CYP26B can be stably transfected into HeLa cells. Exponentially growing cells are harvested by incubating in trypsin. Cells are then washed and plated in a 48-well plate at 5×10^5 cells in 0.2 ml MEM medium containing 10% FBS and 0.05 μCi [^3H]-RA in the presence or absence of increasing concentrations of the test compounds. The compounds are diluted in 100% DMSO and then added in triplicate wells at either 10, 1 or 0.1 μM final concentration. As a positive control for RA metabolism inhibition, cells are also incubated with ketoconazole at 100, 10 and 1 μM. Cells are incubated for 3 hours at 37 degrees C. The retinoids are then extracted using the procedure of Bligh et al., Canadian Journal of Biochemistry 37: 911-917 (1959), modified by using methylenechloride instead of chloroform. This publication by Bligh et al., is specifically incorporated herein by reference. The water soluble radioactivity is quantified using a β scintillation counter, and IC50 values are determined.
# (§2) CYP26A and CYP26B stably transfected HeLa cells were maintained in 100 mm tissue culture dishes in MEM medium containing 10% FBS and 100 μg/ml hygromycin.
# (§3) Exponentially growing cells were harvested by incubating in trypsin. Cells were then washed with 1×PBS and plated in a 48-well plate at 5×10^5 cells in 0.2 ml MEM medium containing 10% FBS and 0.05 μCi [^3H]-RA in the presence or absence of increasing concentrations of the test compounds. The compounds were diluted in 100% DMSO and then added to triplicate wells at final concentrations of 10, 1 or 0.1 μM. As a positive control for RA metabolism inhibition, cells were also incubated with ketoconazole at 100, 10 and 1 μM. Cells were incubated for 3 hours at 37° C. The retinoids were then extracted using a modified Bligh and Dyer procedure (Bligh and Dyer, supra (1959)), in which methylene-chloride, as opposed to chloroform, was used, and the aqueous soluble radioactivity quantified using a β-scintillation counter. ID50 values represent the concentration of inhibitor required to inhibit RA metabolism by 50 percent and were derived manually from log-transformed data.
# [3] = target: T3, RAR γ (Homo sapiens, UniProt P13631); assay: RAR γ Kd; assay type: binding; details: last item of cell EC50/(EFFICACY)/Kd
# T3 sequence (P13631 1-454): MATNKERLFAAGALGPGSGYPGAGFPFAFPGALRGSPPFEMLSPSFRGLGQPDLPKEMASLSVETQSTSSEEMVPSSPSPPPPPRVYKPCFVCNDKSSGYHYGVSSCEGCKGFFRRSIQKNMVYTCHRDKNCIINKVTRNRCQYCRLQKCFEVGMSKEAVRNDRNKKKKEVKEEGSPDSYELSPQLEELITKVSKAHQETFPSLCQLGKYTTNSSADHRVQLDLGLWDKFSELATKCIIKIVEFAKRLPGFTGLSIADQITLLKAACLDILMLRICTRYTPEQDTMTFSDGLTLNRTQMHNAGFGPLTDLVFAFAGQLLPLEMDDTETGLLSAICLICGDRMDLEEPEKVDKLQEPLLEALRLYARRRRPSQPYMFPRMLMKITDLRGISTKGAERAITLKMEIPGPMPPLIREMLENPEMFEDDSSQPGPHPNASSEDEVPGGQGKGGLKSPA
# [4] = target: T4, CYP26A (P450RAI-1) (Homo sapiens, UniProt O43174); assay: Cell-based inhibition of RA metabolism in CYP26A stably transfected HeLa cells; details: stably transfected HeLa cells, [3H]-RA, 3 hours at 37° C.; read-out: P450RAI-1 Whole cell IC50
# T4 construct: expressed in transfected cells; host or cells: HeLa
# T4 sequence (O43174 1-497): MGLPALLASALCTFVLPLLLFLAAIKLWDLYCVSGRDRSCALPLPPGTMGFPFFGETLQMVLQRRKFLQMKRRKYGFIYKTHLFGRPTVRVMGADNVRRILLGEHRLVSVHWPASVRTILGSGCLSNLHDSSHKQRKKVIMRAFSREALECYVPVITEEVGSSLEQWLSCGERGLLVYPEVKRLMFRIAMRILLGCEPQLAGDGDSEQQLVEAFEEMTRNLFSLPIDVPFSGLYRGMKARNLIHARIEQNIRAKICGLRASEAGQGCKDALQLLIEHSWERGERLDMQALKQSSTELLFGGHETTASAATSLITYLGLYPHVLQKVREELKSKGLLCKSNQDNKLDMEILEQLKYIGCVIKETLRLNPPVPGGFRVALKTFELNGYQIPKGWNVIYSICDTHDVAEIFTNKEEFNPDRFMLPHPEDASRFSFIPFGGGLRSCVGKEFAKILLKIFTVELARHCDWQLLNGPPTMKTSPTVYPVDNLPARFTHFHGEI
# Method: as §1, §2, §3
# [5] = target: T5, RAR α (Homo sapiens, UniProt P10276); assay: RAR α Kd; assay type: binding; details: last item of cell EC50/(EFFICACY)/Kd
# T5 sequence (P10276 1-462): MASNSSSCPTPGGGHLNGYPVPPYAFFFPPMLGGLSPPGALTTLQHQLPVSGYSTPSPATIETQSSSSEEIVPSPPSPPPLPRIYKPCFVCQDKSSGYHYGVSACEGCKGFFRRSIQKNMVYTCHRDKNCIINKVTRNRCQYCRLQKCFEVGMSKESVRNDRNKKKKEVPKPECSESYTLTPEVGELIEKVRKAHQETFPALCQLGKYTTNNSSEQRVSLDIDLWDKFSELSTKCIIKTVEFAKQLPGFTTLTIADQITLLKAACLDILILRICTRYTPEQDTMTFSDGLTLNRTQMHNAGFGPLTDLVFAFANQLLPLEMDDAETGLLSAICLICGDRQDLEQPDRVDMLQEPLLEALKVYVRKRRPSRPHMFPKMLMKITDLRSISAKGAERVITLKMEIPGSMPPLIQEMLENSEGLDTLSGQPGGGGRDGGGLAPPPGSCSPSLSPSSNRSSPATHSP
SMILES,Kd [1] [µM],IC50 [2] [µM],Kd [3] [µM],IC50 [4] [nM],Kd [5] [µM]
"CN(Cc1cc(C#Cc2ccc(CC(=O)O)c(F)c2)cc2c1OC(C)(C)CC2(C)C)C1CC1 [Compound 7, (4-{8-[(Cyclopropyl-methyl-amino)-methyl]-2,2,4,4-tetramethyl-chroman-6-ylethynyl}-2-fluoro-phenyl)-acetic acid]",> 10,2,> 10,40,> 10
"CN(Cc1cc(C#Cc2ccc(CC(=O)O)cc2)cc2c1OC(C)(C)CC2(C)C)C1CC1 [Compound 6, (4-{8-[(Cyclopropyl-methyl-amino)-methyl]-2,2,4,4-tetramethyl-chroman-6-ylethynyl}phenyl)-acetic acid]",> 10,4,> 10,60,3.41
"C#Cc1cc(C#Cc2ccc(CC(=O)O)c(F)c2)cc(C(=O)OC(C)C)c1 [Compound 61, 3-(4-Carboxymethyl-3-fluoro-phenylethynyl)-5-ethynyl-benzoic acid isopropyl ester]",> 10,8.1,> 10,220,> 10
"CN(C1CC1)C1CCC(C)(C)c2cc(NC(=O)Nc3ccc(C(=O)O)cc3)ccc21 (centres unmarked) [Compound 21, 4-{3-[5-(Cyclopropyl-methyl-amino)-8,8-dimethyl-5,6,7,8-tetrahydro-naphthalen-2-yl]-ureido}-benzoic acid]",> 10,0.7,> 10,> 10000,> 10
"CC(C(=O)O)c1ccc(C#Cc2cc(C3CC3)c3c(c2)C(C)(C)CCC3N(C)C2CC2)cc1 (centres unmarked) [Compound 49, 2-{4-[4-Cyclopropyl-5-(cyclopropyl-methyl-amino)-8,8-dimethyl-5,6,7,8-tetrahydro-naphthalen-2-ylethynyl]-phenyl}-propionic acid]",> 10,–,> 10,50,5.28
"COc1cc(C#Cc2ccc(/C=C/C(=O)O)cc2)cc2c1C(N(C)C1CC1)CCC2(C)C (centres unmarked) [Compound 29, (E)-3-{4-[5-(Cyclopropyl-methyl-amino)-4-methoxy-8,8-dimethyl-5,6,7,8-tetrahydro-naphthalen-2-ylethynyl]-phenyl}-acrylic acid]",> 10,> 10,> 10,600,> 10
"CC(C)(C)OC(=O)c1cc(C#Cc2ccc(CC(=O)O)cc2)cc2c1OC(C)(C)CC2(C)C [Compound 20, 6-(4-Carboxymethyl-phenylethynyl)-2,2,4,4-tetramethyl-chroman-8-carboxylic acid tert-butyl ester]",–,> 10,–,2900,–
"Cc1cc2c(cc1C#Cc1ccc(C(C)(C)C(=O)O)cc1)C(C)(C)CCC2N(C)C1CC1 (centres unmarked) [Compound 53, 2-{4-[5-(Cyclopropyl-methyl-amino)-3,8,8-trimethyl-5,6,7,8-tetrahydro-naphthalen-2-ylethynyl]-phenyl}-2-methyl-propionic acid]",3.91,5,> 10,500,> 10
"COc1cc(C#Cc2ccc(C(C)C(=O)O)cc2)cc2c1C(N(C)C1CC1)CCC2(C)C (centres unmarked) [Compound 27, 2-{4-[5-(Cyclopropyl-methyl-amino)-4-methoxy-8,8-dimethyl-5,6,7,8-tetrahydro-naphthalen-2-ylethynyl]-phenyl}-propionic acid]",1.27,> 10,> 10,28,0.118
"CC(C)(C)COC(=O)c1cc(C#Cc2ccc(CC(=O)O)cc2)cc2c1OC(C)(C)CC2(C)C [Compound 19, 6-(4-Carboxymethyl-phenylethynyl)-2,2,4,4-tetramethyl-chroman-8-carboxylic acid 2,2-dimethylpropyl ester]",–,> 10,–,7000,–
"CC(C)OC(=O)c1cc(C#Cc2ccc(CC(=O)O)cc2)cc2c1OC(C)(C)CC2(C)C [Compound 18, 6-(4-Carboxymethyl-phenylethynyl)-2,2,4,4-tetramethyl-chroman-8-carboxylic acid isopropyl ester]",–,> 10,–,400,–
"CC(C)N(Cc1cc(C(=O)Oc2ccc(CC(=O)O)cc2)cc2c1OC(C)(C)CC2(C)C)C1CC1 [Compound 17, 8-[(Cyclopropyl-isopropyl-amino)-methyl]-2,2,4,4-tetramethyl-chroman-6-carboxylic acid 4-carboxymethyl-phenyl ester]",–,> 10,–,2500,–
